From patent publication US11679114B2, “Progestogen-only oral contraception” (Navad Life Sciences Pte, priority 2021, dated 2023)
Several values for one entry are separate records, joined by “and”; a condition that tells them apart may be missing. Equal values may be shown once.

Tests used:
Format in all cases: in vivo, human
[1] = test system: healthy, cyclic women; assay: Serum FSH, LH, estradiol (E2) and progesterone (P) concentrations during treatment
Experimental: (§1) The tablets prepared in Example 1 were tested in a single-center, open-label, adaptive design study to evaluate the influence on hormonal and ovarian function and vaginal bleeding pattern of different higher dosages of LNG administered once daily for 28 days over two consecutive treatment cycles in healthy, cyclic women.
(§2) Subjects started study medication intake on the first day of menstrual bleeding after the pre-treatment cycle. One tablet was taken orally, around the same time every morning, during 56 consecutive days. Study visits were planned every three (±1) days from treatment day 3 (±1) until 27 (±1) and from day 31 (±1) until day 55 (±1). At each visit the diameter of the largest follicle-like structure (FLS) and serum follicle-stimulating hormone (FSH), luteinizing hormone (LH), estradiol (E2) and P concentrations were measured.
(§3) If ovulation was observed during treatment, the subsequent luteal phase was evaluated using the Landgren criterion, i.e. the luteal phase was considered adequate when P concentrations were >16 nmol/L during at least 5 days (Landgren et al., “Hormonal effects of the 300 μg norethisterone (NET) minipill. 1. Daily steroid levels in 43 subjects during a pretreatment cycle and during the second month of NET administration,” Contraception 1980; 21: pp. 87-113). TVUS measurements of the diameter of the largest FLS (mean of two directions) were performed using a Voluson E8 Expert device (GE Medical Systems). Serum FSH, LH, E2, P and SHBG concentrations were determined by validated chemiluminescent microparticle immunoassays (Abbott, Longford, Ireland). All pharmacodynamic parameters were evaluated descriptively.

[2] = test system: healthy, cyclic women; assay: Return of ovulation after the last treatment day; conditions: for Ovulation observed, average days after last treatment: post-treatment period
Experimental: After the last treatment day, assessments were continued every three (±1) days until ovulation was observed, followed by P measurements 2 (±1) and, if necessary, 4 (±1) days after ovulation. An end-of-study examination was performed 6 (±1) days after ovulation, or on day 30 (±1) in case no ovulation had been observed until then.

[3] = test system: healthy, cyclic women; assay: Ovarian activity according the Hoogland-Skouby score during two 28-day treatment periods
Experimental: as §1
The first tested dosage was 0.095 mg per day. The choice of subsequent dosages depended on the occurrence of ovulations in the previous treatment groups. The study was stopped when the lowest dosage completely inhibiting ovulation was identified, and one higher and one lower dosage were investigated.
as §2
The primary outcome parameter was ovarian activity according the Hoogland-Skouby score (Table 1), determined for each 28-day treatment period (Hoogland H J, Skouby S O. “Ultrasound evaluation of ovarian activity under oral contraceptives,” Contraception 1993; 47: pp. 583-90).
as §3

[4] = test system: healthy, cyclic women; assay: Vaginal bleeding pattern (daily record); conditions: excluding the first 7 treatment days
Experimental: as §1
Throughout the study, subjects kept a daily record of vaginal bleeding. During the treatment period, they also documented the time of study medication intake.

[5] = LNG 0.095 mg per day, BMI < 30 kg/m^2, entire treatment period
[6] = LNG 0.095 mg per day, BMI ≥ 30 kg/m^2, entire treatment period
[7] = LNG 0.095 mg per day, entire treatment period
[8] = LNG 0.095 mg per day, treatment period 1
[9] = LNG 0.095 mg per day, treatment period 2
[10] = LNG 0.115 mg per day, BMI < 30 kg/m^2, entire treatment period
[11] = LNG 0.115 mg per day, BMI ≥ 30 kg/m^2, entire treatment period
[12] = LNG 0.115 mg per day, entire treatment period
[13] = LNG 0.115 mg per day, treatment period 1
[14] = LNG 0.115 mg per day, treatment period 2
[15] = LNG 0.135 mg per day, BMI < 30 kg/m^2, entire treatment period
[16] = LNG 0.135 mg per day, BMI ≥ 30 kg/m^2, entire treatment period
[17] = LNG 0.135 mg per day, entire treatment period
[18] = LNG 0.135 mg per day, treatment period 1
[19] = LNG 0.135 mg per day, treatment period 2

In the case of `C#C[C@]1(O)CC[C@H]2[C@@H]3CCC4=CC(=O)CC[C@@H]4[C@H]3CC[C@@]21CC` (racemic) [LNG, levonorgestrel], the “LH peak in one of the ovulating subjects” value ([1]; LNG 0.095 mg per day) is reported as 68.0 IU/L, the “Maximum E2 concentration, Mean ± SD” value [1, 5] is reported as 705 ± 537 pmol/L and the “Mean E2 concentration, Mean ± SD” value [1, 5] is reported as 253 ± 140 pmol/L. The “Maximum E2 concentration, Mean ± SD” value [1, 6] was 484 ± 277 pmol/L, the “Mean E2 concentration, Mean ± SD” value [1, 6] was 190 ± 72 pmol/L and the “Maximum E2 concentration, Mean ± SD” value [1, 7] was 660 ± 500 pmol/L. For the same compound, the “Maximum E2 concentration, Median” value [1, 7] was 580 pmol/L, the “Mean E2 concentration, Mean ± SD” value [1, 7] was 241 pmol/L and 241 ± 130 pmol/L and the “Mean E2 concentration, Median” value [1, 7] was 204 pmol/L. The “Maximum E2 concentration, Mean ± SD” value [1, 8] was 595 ± 495 pmol/L, the “Maximum E2 concentration, Median” value [1, 8] was 362 pmol/L and the “Mean E2 concentration, Mean ± SD” value [1, 8] was 289 ± 195 pmol/L. For the same compound, the “Mean E2 concentration, Median” value [1, 8] was 231 pmol/L, the “Maximum E2 concentration, Mean ± SD” value [1, 9] was 384 ± 304 pmol/L and the “Maximum E2 concentration, Median” value [1, 9] was 224 pmol/L. For the same compound, the “Mean E2 concentration, Mean ± SD” value [1, 9] was 186 ± 97 pmol/L, the “Mean E2 concentration, Median” value [1, 9] was 144 pmol/L and the “Maximum E2 concentration, Mean ± SD” value [1, 10] was 611 ± 623 pmol/L. The “Mean E2 concentration, Mean ± SD” value [1, 10] was 213 ± 160 pmol/L, the “Maximum E2 concentration, Mean ± SD” value [1, 11] was 607 ± 116 pmol/L and the “Mean E2 concentration, Mean ± SD” value [1, 11] was 242 ± 66 pmol/L. For the same compound, the “Maximum E2 concentration, Mean ± SD” value [1, 12] was 610 ± 559 pmol/L, the “Maximum E2 concentration, Median” value [1, 12] was 511 pmol/L and the “Mean E2 concentration, Mean ± SD” value [1, 12] was 219 pmol/L and 219 ± 146 pmol/L. The “Mean E2 concentration, Median” value [1, 12] was 186 pmol/L, the “Maximum E2 concentration, Mean ± SD” value [1, 13] was 563 ± 551 pmol/L and the “Maximum E2 concentration, Median” value [1, 13] was 481 pmol/L. The “Mean E2 concentration, Mean ± SD” value [1, 13] was 269 ± 217 pmol/L, the “Mean E2 concentration, Median” value [1, 13] was 244 pmol/L and the “Maximum E2 concentration, Mean ± SD” value [1, 14] was 367 ± 278 pmol/L. The “Maximum E2 concentration, Median” value [1, 14] was 215 pmol/L, the “Mean E2 concentration, Mean ± SD” value [1, 14] was 170 ± 88 pmol/L and the “Mean E2 concentration, Median” value [1, 14] was 146 pmol/L. For the same compound, the “Maximum E2 concentration, Mean ± SD” value [1, 15] was 415 ± 244 pmol/L, the “Mean E2 concentration, Mean ± SD” value [1, 15] was 178 ± 72 pmol/L and the “Maximum E2 concentration, Mean ± SD” value [1, 16] was 421 ± 332 pmol/L. The “Mean E2 concentration, Mean ± SD” value [1, 16] was 190 ± 87 pmol/L, the “Maximum E2 concentration, Mean ± SD” value [1, 17] was 416 ± 256 pmol/L and the “Maximum E2 concentration, Median” value [1, 17] was 279 pmol/L. The “Mean E2 concentration, Mean ± SD” value [1, 17] was 180 pmol/L and 180 ± 73 pmol/L, the “Mean E2 concentration, Median” value [1, 17] was 144 pmol/L and the “Maximum E2 concentration, Mean ± SD” value [1, 18] was 369 ± 245 pmol/L. The “Maximum E2 concentration, Median” value [1, 18] was 239 pmol/L, the “Mean E2 concentration, Mean ± SD” value [1, 18] was 198 ± 100 pmol/L and the “Mean E2 concentration, Median” value [1, 18] was 156 pmol/L. The “Maximum E2 concentration, Mean ± SD” value [1, 19] was 302 ± 184 pmol/L, the “Maximum E2 concentration, Median” value [1, 19] was 242 pmol/L and the “Mean E2 concentration, Mean ± SD” value [1, 19] was 162 ± 62 pmol/L. For the same compound, the “Mean E2 concentration, Median” value [1, 19] was 148 pmol/L, the “Subjects with mean E2 concentrations ≥110 pmol/L (30 pg/mL)” value ([1]; all dosages (0.095, 0.115, 0.135 mg per day)) was 80-90% and the “Mean E2 concentrations in all subjects” value ([1]; all dosages, except in one subject in the 0.115 mg group, 73.4 pmol/L = 20 pg/mL) was over 73.4 pmol/L. The “Individual P concentrations during treatment” value ([1]; all groups, except 2 ovulating subjects (0.095 mg), the subject with abnormal ovulation (0.135 mg) and one other subject) was “below 5 nmol/L”, the “Individual LH concentrations” value ([1]; all groups, except for an LH peak in one ovulating subject in the 0.095 mg group) was “below 12.1 IU/L” and the “Mean E2 concentrations in all LNG treatment groups” value ([1]; all treatment groups, 110 pmol/L (30 pg/mL) = lower limit assumed not to lead to accelerated bone loss) was “above 110 pmol/L”. For the same compound, the “Single P concentration in another subject” value ([1]; first treatment visit, probably a residue from the pre-treatment cycle, dose group not stated) was 5.85 nmol/L, the “Ovulation observed, average days after last treatment” value (shortened to “Ovulation observed, average days”) ([2]; LNG 0.095 mg per day for 56 days) was 15.5 days and the “Ovulation observed, average days” value ([2]; LNG 0.115 mg per day for 56 days) was 14.1 days. For the same compound, the “Ovulation observed, average days” value ([2]; LNG 0.135 mg per day for 56 days) was 12.8 days, the “P concentrations after post-treatment ovulation” value ([2]; majority of subjects, within the 30-day post-treatment period) was at least 16 nmol/L and the “Subjects with Hoogland-Skouby score 1 (No activity), %” value (“Subjects … (No activity), %” below) [3, 8] was 3.7%. The “Subjects with Hoogland-Skouby score 2 (Potential activity), %” value (“Subjects … (Potential activity), %” for short) [3, 8] was 29.6%, the “Subjects with Hoogland-Skouby score 3 (Non-active FLS), %” value (“Subjects … (Non-active FLS), %” for short) [3, 8] was 3.7% and the “Subjects with Hoogland-Skouby score 4 (Active FLS), %” value (“Subjects … (Active FLS), %” for short) [3, 8] was 55.6%. The “Subjects with Hoogland-Skouby score 5 (LUF), %” value (“Subjects … (LUF), %” for short) [3, 8] was 0%, the “Subjects with Hoogland-Skouby score 6 ('Ovulation'), %” value (from here on “Subjects … ('Ovulation'), %”) [3, 8] was 7.4% and the “Subjects … (No activity), %” value [3, 9] was 0%. For the same compound, the “Subjects … (Potential activity), %” value [3, 9] was 24.0%, the “Subjects … (Non-active FLS), %” value [3, 9] was 0% and the “Subjects … (Active FLS), %” value [3, 9] was 76.0%. The “Subjects … (LUF), %” value [3, 9] was 0%, the “Subjects … ('Ovulation'), %” value [3, 9] was 0% and the “Subjects … (No activity), %” value [3, 13] was 3.7%. The “Subjects … (Potential activity), %” value [3, 13] was 22.2%, the “Subjects … (Non-active FLS), %” value [3, 13] was 3.7% and the “Subjects … (Active FLS), %” value [3, 13] was 70.4%. For the same compound, the “Subjects … (LUF), %” value [3, 13] was 0%, the “Subjects … ('Ovulation'), %” value [3, 13] was 0% and the “Subjects … (No activity), %” value [3, 14] was 3.85%. For the same compound, the “Subjects … (Potential activity), %” value [3, 14] was 23.1%, the “Subjects … (Non-active FLS), %” value [3, 14] was 7.7% and the “Subjects … (Active FLS), %” value [3, 14] was 65.4%. The “Subjects … (LUF), %” value [3, 14] was 0%, the “Subjects … ('Ovulation'), %” value [3, 14] was 0% and the “Subjects … (No activity), %” value [3, 18] was 4.0%. The “Subjects … (Potential activity), %” value [3, 18] was 32.0%, the “Subjects … (Non-active FLS), %” value [3, 18] was 0% and the “Subjects … (Active FLS), %” value [3, 18] was 64.0%. For the same compound, the “Subjects … (LUF), %” value [3, 18] was 0%, the “Subjects … ('Ovulation'), %” value [3, 18] was 0% and the “Subjects … (No activity), %” value [3, 19] was 4.0%. The “Subjects … (Potential activity), %” value [3, 19] was 24.0%, the “Subjects … (Non-active FLS), %” value [3, 19] was 4.0% and the “Subjects … (Active FLS), %” value [3, 19] was 68.0%. For the same compound, the “Subjects … (LUF), %” value [3, 19] was 0%, the “Subjects … ('Ovulation'), %” value [3, 19] was 0% and the “Lowest dosage at which no ovulation occurred (lowest effective dosage)” value ([3]; once daily oral, two 28-day treatment periods, 0.095, 0.115 and 0.135 mg tested) was 0.115 mg per day. The “Number of days with bleeding or spotting during treatment, mean (±SD)” value (from here on “Number of days … (±SD)”) ([4]; LNG 0.095 mg per day) was 12.3 (±8.6) days, the “Number of days with bleeding or spotting during treatment, median” value (“Number of days … median” for short) ([4]; LNG 0.095 mg per day) was 11.5 days and the “Number of days … (±SD)” value ([4]; LNG 0.115 mg per day) was 14.5 (±9.4) days. For the same compound, the “Number of days … median” value ([4]; LNG 0.115 mg per day) was 14.5 days, the “Number of days … (±SD)” value ([4]; LNG 0.135 mg per day) was 16.0 (±11.5) days and the “Number of days … median” value ([4]; LNG 0.135 mg per day) was 13.0 days.
